US8846719B2, “Isoxazolo-pyridine derivatives” (Roche Palo Alto LLC, priority 2007, dated 2014)

Biological target: human GABA A receptor α5β3γ2 (Homo sapiens (Human), UniProt P18507+P31644)
Experiment: [3H]flumazenil competition binding assay, human GABA A α5β3γ2 receptors expressed in HEK293 cells
Conditions: human receptor; displacement of [3H]flumazenil (0.5 nM); means of two determinations; read-out: hKi GABAAa5
Summary of the method: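 Ki values, each the mean of two runs, derive from displacement of [3H]flumazenil from human α5β3γ2 GABA A receptors transiently expressed in HEK293 membranes. Binding ran 1 h at 4° C in Krebs-tris, pH 7.5, before filter harvest and scintillation counting.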

Compound	Ki
COC1CN(C(=O)c2ccc(OCc3c(-c4ccccc4)noc3C)nc2)C1 [Example 241, (3-Methoxy-azetidin-1-yl)-[6-(5-methyl-3-phenyl-isoxazol-4-ylmethoxy)-pyridin-3-yl]-methanone]	16 nM
Cc1onc(-c2ccc(Cl)cn2)c1COc1ccc(C(=O)NCC2CC2)cn1 [Example 306, 6-[3-(5-Chloro-pyridin-2-yl)-5-methyl-isoxazol-4-ylmethoxy]-cyclopropylmethyl-nicotinamide]	0.3 nM
Cc1onc(-c2ccccn2)c1COc1ccc(C(=O)O)cn1 [Example 283, 6-(5-Methyl-3-pyridin-2-yl-isoxazol-4-ylmethoxy)-nicotinic acid]	22.3 nM
CNC(=O)c1ccc(OCc2conc2-c2ccc(F)cn2)nc1 [Example 372, 6-[3-(5-Fluoro-pyridin-2-yl)-isoxazol-4-ylmethoxy]-methyl-nicotinamide]	18.5 nM
Cc1onc(-c2ccccc2)c1COc1ccc(C(=O)Nc2cnn(C)c2)cn1 [Example 237, 6-(5-Methyl-3-phenyl-isoxazol-4-ylmethoxy)-N-(1-methyl-1H-pyrazol-4-yl)-nicotinamide]	1.1 nM
Cc1onc(-c2ccc(F)c(F)c2)c1COc1ccc(C(=O)NCC(C)(C)O)cn1 [Example 269, 6-[3-(3,4-Difluoro-phenyl)-5-methyl-isoxazol-4-ylmethoxy]-N-(2-hydroxy-2-methyl-propyl)-nicotinamide]	6.7 nM
Cc1onc(-c2ccccc2)c1COc1ccc(C(=O)N2CCSCC2)cn1 [Example 54, [6-(5-Methyl-3-phenyl-isoxazol-4-ylmethoxy)-pyridin-3-yl]-thiomorpholin-4-yl-methanone]	25.6 nM
CC(CO)NC(=O)c1ccc(OCc2conc2-c2ccc(F)cc2)nc1 (centres unmarked) [Example 325, 6-[3-(4-Fluoro-phenyl)-isoxazol-4-ylmethoxy]-N-(2-hydroxy-1-methyl-ethyl)-nicotinamide]	9 nM
Cc1onc(-c2ccccc2)c1COc1ccc(C(=O)NCC2(O)CC2)cn1 [Example 194, N-(1-Hydroxy-cyclopropylmethyl)-6-(5-methyl-3-phenyl-isoxazol-4-ylmethoxy)-nicotinamide]	2.1 nM
Cc1onc(-c2ccc(F)cn2)c1COc1ccc(C(=O)NC2CCOCC2)cn1 [Example 288, 6-[3-(5-Fluoro-pyridin-2-yl)-5-methyl-isoxazol-4-ylmethoxy]-(tetrahydro-pyran-4-yl)-nicotinamide]	0.4 nM
O=C(NCC(O)C(F)(F)F)c1ccc(OCc2conc2-c2ccc(F)cc2)nc1 (centres unmarked) [Example 333, 6-[3-(4-Fluoro-phenyl)-isoxazol-4-ylmethoxy]-N-(3,3,3-trifluoro-2-hydroxy-propyl)-nicotinamide]	13.1 nM
COC(=O)c1ccc(OCc2c(-c3ccccn3)noc2C)nc1 [Example 271, 6-(5-Methyl-3-pyridin-2-yl-isoxazol-4-ylmethoxy)-nicotinic acid methyl ester]	3.8 nM
Cc1onc(-c2cccc(F)c2)c1COc1ccc(C(=O)N2CCOCC2)cn1 [Example 94, {6-[3-(3-Fluoro-phenyl)-5-methyl-isoxazol-4-ylmethoxy]-pyridin-3-yl}-morpholin-4-yl-methanone]	48.1 nM
O=C(NC1CC1)c1ccc(OCc2c(-c3ccccc3)noc2C(F)(F)F)nc1 [Example 134, N-Cyclopropyl-6-(3-phenyl-5-trifluoromethyl-isoxazol-4-ylmethoxy)-nicotinamide]	23.8 nM
CC(=O)NCCNC(=O)c1ccc(OCc2c(-c3ccccc3)noc2C)nc1 [Example 205, N-(2-Acetylamino-ethyl)-6-(5-methyl-3-phenyl-isoxazol-4-ylmethoxy)-nicotinamide]	4 nM
Cc1cccc(OCc2c(-c3ccccc3)noc2C)n1 [Example 2, 2-Methyl-6-(5-methyl-3-phenyl-isoxazol-4-ylmethoxy)-pyridine]	3.1 nM
Cc1onc(-c2ccccc2)c1COc1ccc(C(=O)NC2CCCCC2)cn1 [Example 30, N-Cyclohexyl-6-(5-methyl-3-phenyl-isoxazol-4-ylmethoxy)-nicotinamide]	13.1 nM

Now from value to compound:

Ki	Compound
~20 nM	C[C@H](NC(=O)c1ccc(OCc2conc2-c2ccc(Cl)cc2)nc1)C(F)(F)F [Example 357, 6-[3-(4-Chloro-phenyl)-isoxazol-4-ylmethoxy]-N—((S)-2,2,2-trifluoro-1-methyl-ethyl)-nicotinamide]
1.9 nM	Cc1onc(-c2ccccc2)c1COc1ccc(C(=O)N[C@@H](C)C(F)(F)F)cn1 [Example 235, 6-(5-Methyl-3-phenyl-isoxazol-4-ylmethoxy)-N—((S)-2,2,2-trifluoro-1-methyl-ethyl)-nicotinamide]
5 nM	Cc1onc(-c2ccccc2)c1COc1ccc(C(=O)N2CC(O)C2)cn1 [Example 191, (3-Hydroxy-azetidin-1-yl)-[6-(5-methyl-3-phenyl-isoxazol-4-ylmethoxy)-pyridin-3-yl]-methanone]
10.1 nM	Cc1onc(-c2ccccn2)c1COc1ccc(C(=O)N2CCS(=O)(=O)CC2)cn1 [Example 276, (1,1-Dioxo-1,6-thiomorpholin-4-yl)-[6-(5-methyl-3-pyridin-2-yl-isoxazol-4-ylmethoxy)-pyridin-3-yl]-methanone]
11.3 nM	COC(=O)c1ccc(OCc2c(-c3ccncn3)noc2C)nc1 [Example 312, 6-(5-Methyl-3-pyrimidin-4-yl-isoxazol-4-ylmethoxy)-nicotinic acid methyl ester]
31.7 nM	Cc1onc(-c2cccnc2)c1COc1ccc(C(=O)NC(C)C)cn1 [Example 158, N-Isopropyl-6-(5-methyl-3-pyridin-3-yl-isoxazol-4-ylmethoxy)-nicotinamide]
10 nM	Cc1onc(-c2ccccc2)c1COc1ccc(C(=O)NC(C)(C)CO)cn1 [Example 183, N-(2-Hydroxy-1,1-dimethyl-ethyl)-6-(5-methyl-3-phenyl-isoxazol-4-ylmethoxy)-nicotinamide]
1.1 nM	Cc1onc(-c2ccccn2)c1COc1ccc(C(=O)NC2CCOCC2)cn1 [Example 272, 6-(5-Methyl-3-pyridin-2-yl-isoxazol-4-ylmethoxy)-N-(tetrahydro-pyran-4-yl)-nicotinamide]
4.3 nM	C[C@@H](CO)NC(=O)c1ccc(OCc2conc2-c2ccc(Cl)cc2)nc1 [Example 355, 6-[3-(4-Chloro-phenyl)-isoxazol-4-ylmethoxy]-N—((S)-2-hydroxy-1-methyl-ethyl)-nicotinamide]
2 nM	COC(=O)c1ccc(OCc2c(-c3ccc(F)cn3)noc2C)nc1 [Example 286, 6-[3-(5-Fluoro-pyridin-2-yl)-5-methyl-isoxazol-4-ylmethoxy]-nicotinic acid methyl ester]
39.5 nM	Cc1onc(-c2ccc(F)cc2)c1COc1ccc(C(=O)O)cn1 [Example 104, 6-[3-(4-Fluoro-phenyl)-5-methyl-isoxazol-4-ylmethoxy]-nicotinic acid]
3.6 nM	Cc1onc(-c2ccccc2)c1COc1ccc(C(=O)NC2(C)CC2)cn1 [Example 239, N-(1-Methyl-cyclopropyl)-6-(5-methyl-3-phenyl-isoxazol-4-ylmethoxy)-nicotinamide]
36.5 nM	Cc1onc(-c2ccccc2)c1COc1ccccn1 [Example 1, 2-(5-Methyl-3-phenyl-isoxazol-4-ylmethoxy)-pyridine]
36.2 nM	Cc1onc(-c2ccncn2)c1COc1ccc(C(=O)N2CCOCC2)cn1 [Example 316, [6-(5-Methyl-3-pyrimidin-4-yl-isoxazol-4-ylmethoxy)-pyridin-3-yl]-morpholin-4-yl-methanone]
4.5 nM	Cc1onc(-c2ccccc2)c1COc1ccc(C(=O)NC2CCS(=O)(=O)C2)cn1 (centres unmarked) [Example 185, N-(1,1-Dioxo-tetrahydro-thiophen-3-yl)-6-(5-methyl-3-phenyl-isoxazol-4-ylmethoxy)-nicotinamide]
0.8 nM	Cc1onc(-c2ccc(F)cc2)c1COc1ccc(C(=O)NC2CCOCC2)cn1 [Example 109, 6-[3-(4-Fluoro-phenyl)-5-methyl-isoxazol-4-ylmethoxy]-N-(tetrahydro-pyran-4-yl)-nicotinamide]
3.3 nM	Cc1noc(-c2ccc(OCc3c(-c4ccccc4)noc3C)nc2)n1 [Example 245, 5-(3-Methyl-[1,2,4]oxadiazol-5-yl)-2-(5-methyl-3-phenyl-isoxazol-4-ylmethoxy)-pyridine]
68.1 nM	Cc1onc(-c2ccccc2)c1COc1ccc(C(=O)NC2COCc3ccccc32)cn1 (centres unmarked) [Example 79, N-Isochroman-4-yl-6-(5-methyl-3-phenyl-isoxazol-4-ylmethoxy)-nicotinamide]
13.1 nM	Cc1onc(-c2ccccc2)c1COc1ccc(C#N)cn1 [Example 5, 6-(5-Methyl-3-phenyl-isoxazol-4-ylmethoxy)-nicotinonitrile]
7.8 nM	COCCNC(=O)c1ccc(OCc2c(-c3ccccc3)noc2C)nc1 [Example 184, N-(2-Methoxy-ethyl)-6-(5-methyl-3-phenyl-isoxazol-4-ylmethoxy)-nicotinamide]
26.1 nM	Cc1onc(-c2ccccc2)c1COc1ccc(C(=O)N2CCC(O)C2)cn1 (centres unmarked) [Example 223, (3-Hydroxy-pyrrolidin-1-yl)-[6-(5-methyl-3-phenyl-isoxazol-4-ylmethoxy)-pyridin-3-yl]-methanone]
4.3 nM	Cc1onc(-c2ccccc2)c1COc1ccc(C(=O)NCCN2CCNC2=O)cn1 [Example 214, 6-(5-Methyl-3-phenyl-isoxazol-4-ylmethoxy)-N-[2-(2-oxo-imidazolidin-1-yl)-ethyl]-nicotinamide]
1.2 nM	Cc1onc(-c2ccccc2)c1COc1ccc(C(=O)NC2CC(OCc3ccccc3)C2)cn1 (stereo not drawn) [Example 230, (cis or trans)-N-(3-Benzyloxy-cyclobutyl)-6-(5-methyl-3-phenyl-isoxazol-4-ylmethoxy)-nicotinamide]
13.4 nM	Cc1onc(-c2cccc(F)c2)c1COc1ccc(C(=O)N2CCS(=O)(=O)CC2)cn1 [Example 96, (1,1-Dioxo-1λ6-thiomorpholin-4-yl)-{6-[3-(3-fluoro-phenyl)-5-methyl-isoxazol-4-ylmethoxy]-pyridin-3-yl}-methanone]
